This assay deals with native tau aggregates. The experiment in a line: TAU radioligand in vitro displacement assay ([3H]T808 autoradiography on human AD brain sections). The settings on record: compound 10 nM, radioligand [3H]T808 10 nM, 50 mM Tris pH 7.4, room temperature, 30 min. In kind it is binding. The procedure: TAU Radioligand-In-Vitro Displacement Assay
This in vitro binding assay assesses the affinity of compounds for native tau aggregates. The compounds are co-incubated with the well-established tau specific radioligand [^3H]T808 and the compound's displacement potency of [^3H]T808 binding is determined by in vitro autoradiography using human Alzheimer's disease (AD) brain sections (FIG. 1).
AD human brains are purchased from Banner Sun Health Research Institute (Sun City, Ariz., USA). Pathological diagnosis of AD is made according to standard NIA-Reagan Institute criteria based on neuropathological data. The radioligand [^3H]T808 was synthesized in-house ([^3H]-2-[4-(2-Fluoro-ethyl)-piperidin-1-yl]-benzo[4,5]imidazo[1,2-a]pyrimidine, radiochemical purity 99.0%). As a reference cold T808 is used (2-[4-(2-Fluoro-ethyl)-piperidin-1-yl]-benzo[4,5]imidazo[1,2-a]pyrimidine). For the autoradiography FujiFilm Imaging Plates (BAS-IP TR 2025) are exposed to the sections and read with a FujiFilm IP reader (BAS-5000).
Ten μm thick human AD brain sections are generated with a cryostat (Leica CM3050) at −17° C. chamber temperature and −15° C. object temperature. Sections are transferred to Histobond+microscope slides (Marienfeld Laboratory Glasware). After drying for 3 hours at room temperature the sections are stored at −20° C. The sections are incubated with the radioligand (10 nM) and the respective cold compound (at various concentrations) in 50 mM Tris buffer, pH 7.4 at room temperature for 30 min. After washing 3×10 min at 4° C. in 50 mM Tris buffer, pH 7.4 and 3 quick dips in H2O dist. at 4° C. the sections are dried at 4° C. for 3 h. The sections are placed in a FujiFilm Cassette (BAS 2025), exposed with an Imaging Plate for five days and afterwards scanned with a resolution of […].
The signal intensity (Dens—PSL/mm2) in the region of interest (ROI) of the autoradiogram is quantified with the software MCID analysis (version 7.0, Imaging Research Inc.). The specific binding (SB) of [^3H]T808 binding in absence or in presence of a compound is calculated by subtracting the non-specific binding signal in the white matter, thus yielding SB[3H]T808 only and SBcompund. The % displacement by the various compounds is calculated as following: % displacement=100−(SBcompund/SB[3H]T808 only)*100.
In each experiment cold T808 is used as a positive internal control. Co-incubation of equimolar amounts of hot and cold T808 is expected to reduce specific binding by approximately 50%.

This is an account of results in patent US9801961B2, “2-phenylimidazo[1,2-a]pyrimidines as imaging agents” (Hoffmann-La Roche Inc., priority 2013, dated 2017).

SMILES strings stand for the structures.

As for `Cc1cccc(-c2cn3ccc(N(C)CCOCCF)nc3n2)c1` [Example 68, N-[2-(2-Fluoroethoxy)ethyl]-N-methyl-2-(3-methylphenyl)imidazo[1,2-a]pyrimidin-7-amine], the “% displacement of [3H]T808 (10 nM) at 10 nM” value (“% displacement of [3H]T808” for short) is listed as 14%.

With `COc1ccc(-c2cn3ccc(N4CCC4)nc3n2)cc1` [Example 69, 7-(Azetidin-1-yl)-2-(4-methoxyphenyl)imidazo[1,2-a]pyrimidine], the “% displacement of [3H]T808” value was found to be 40%.

Take `COc1ccc(-c2cn3ccc(N4CC(F)C4)nc3n2)cc1` [Example 70, 7-(3-Fluoroazetidin-1-yl)-2-(4-methoxyphenyl)imidazo[1,2-a]pyrimidine]: the “% displacement of [3H]T808” value is on record as 25%.

Regarding `FC1CN(c2ccn3cc(-c4ccccc4)nc3n2)C1` [Example 71, 7-(3-Fluoroazetidin-1-yl)-2-phenylimidazo[1,2-a]pyrimidine], the “% displacement of [3H]T808” value amounted to 18%.

In the case of `Cc1cccc(-c2cn3ccc(N4CC(F)C4)nc3n2)c1` [Example 72, 7-(3-Fluoroazetidin-1-yl)-2-(3-methylphenyl)imidazo[1,2-a]pyrimidine], the “% displacement of [3H]T808” value was 18%.

For the compound `FC1CCN(c2ccn3cc(-c4cc5ccccc5o4)nc3n2)CC1` [Example 73, 2-(1-Benzofuran-2-yl)-7-(4-fluoropiperidin-1-yl)imidazo[1,2-a]pyrimidine], the “% displacement of [3H]T808” value worked out at 19%.

Turning to `CN(C)c1ccc(-c2cn3ccc(N4CCOCC4)nc3n2)cc1` [Example 74, N,N-Dimethyl-4-(7-morpholin-4-ylimidazo[1,2-a]pyrimidin-2-yl)aniline], the “% displacement of [3H]T808” value was 16%.

Consider `FC1CCN(c2ccn3cc(-c4cc5ccccc5s4)nc3n2)CC1` [Example 75, 2-(1-Benzothiophen-2-yl)-7-(4-fluoropiperidin-1-yl)imidazo[1,2-a]pyrimidine], for which the “% displacement of [3H]T808” value came out at 18%.

For the compound `COc1ccc(-c2cn3ccc(NC4CC4)nc3n2)cc1` [Example 76, N-Cyclopropyl-2-(4-methoxyphenyl)imidazo[1,2-a]pyrimidin-7-amine], the “% displacement of [3H]T808” value was 43%.

As to `COc1ccc(-c2cn3ccc(NC(C)C)nc3n2)cc1` [Example 77, N-Isopropyl-2-(4-methoxy-phenyl)-imidazo[1,2-a]pyrimidin-7-amine], the “% displacement of [3H]T808” value is recorded as 15%.

Consider `COc1ccc(-c2cn3ccc(NCC(F)(F)F)nc3n2)cc1` [Example 78, 2-(4-Methoxyphenyl)-N-(2,2,2-trifluoroethyl)imidazo[1,2-a]pyrimidin-7-amine], for which the “% displacement of [3H]T808” value came to 8%.

For `FC1CCN(c2ccn3cc(-c4nc5ccccc5s4)nc3n2)CC1` [Example 79, 2-[7-(4-Fluoropiperidin-1-yl)imidazo[1,2-a]pyrimidin-2-yl]-1,3-benzothiazole], the “% displacement of [3H]T808” value is given as 12%.

On to `Oc1ccc(-c2cn3ccc(N4CCC4)nc3n2)cc1` [Example 80, 4-[7-(Azetidin-1-yl)imidazo[1,2-a]pyrimidin-2-yl]phenol], for which the “% displacement of [3H]T808” value came to 25%.

Turning to `COc1ccc(-c2cn3ccc(N4CC(OC)C4)nc3n2)cc1` [Example 81, 7-(3-Methoxyazetidin-1-yl)-2-(4-methoxyphenyl)imidazo[1,2-a]pyrimidine], the “% displacement of [3H]T808” value worked out at 16%.

`CNc1ccn2cc(-c3ccc(C)cc3)nc2n1` [Example 82, N-Methyl-2-(4-methylphenyl)imidazo[1,2-a]pyrimidin-7-amine]: the “% displacement of [3H]T808” value came out at 38%.

As for `CNc1ccn2cc(-c3ccc(OC)cc3)nc2n1` [Example 83, 2-(4-Methoxyphenyl)-N-methylimidazo[1,2-a]pyrimidin-7-amine], the “% displacement of [3H]T808” value amounted to 41%.

With `CNc1ccn2cc(-c3ccc4c(c3)OCO4)nc2n1` [Example 84, 2-(1,3-Benzodioxol-5-yl)-N-methylimidazo[1,2-a]pyrimidin-7-amine], the “% displacement of [3H]T808” value is reported as 28%.

As for `CN(C)c1ccn2cc(-c3ccsc3)nc2n1` [Example 85, N,N-Dimethyl-2-thiophen-3-ylimidazo[1,2-a]pyrimidin-7-amine], the “% displacement of [3H]T808” value was determined as 35%.

On to `Cc1ccc(-c2cn3ccc(N(C)CCF)nc3n2)cc1` [Example 86, N-(2-Fluoroethyl)-N-methyl-2-(4-methylphenyl)imidazo[1,2-a]pyrimidin-7-amine], for which the “% displacement of [3H]T808” value came out at 16%.

For the compound `CN(CCF)c1ccn2cc(-c3ccc4c(c3)OCO4)nc2n1` [Example 87, 2-(1,3-Benzodioxol-5-yl)-N-(2-fluoroethyl)-N-methylimidazo[1,2-a]pyrimidin-7-amine], the “% displacement of [3H]T808” value is recorded as 15%.

With `Cc1cccc(-c2cn3ccc(N(C)CCF)nc3n2)c1` [Example 88, N-(2-Fluoroethyl)-N-methyl-2-(3-methylphenyl)imidazo[1,2-a]pyrimidin-7-amine], the “% displacement of [3H]T808” value stood at 22%.

Turning to `COc1ccc(-c2cn3ccc(N4CC(C)C4)nc3n2)cc1` [Example 89, 2-(4-Methoxyphenyl)-7-(3-methylazetidin-1-yl)imidazo[1,2-a]pyrimidine], the “% displacement of [3H]T808” value was determined as 20%.

For `CNc1ccn2cc(-c3ccc(N(C)C)cc3)nc2n1` [Example 90, 2-[4-(Dimethylamino)phenyl]-N-methylimidazo[1,2-a]pyrimidin-7-amine], the “% displacement of [3H]T808” value was 38%.

Regarding `CN(C)c1ccc(-c2cn3ccc(N4CCC(F)CC4)nc3n2)cc1` [Example 91, 4-[7-(4-Fluoropiperidin-1-yl)imidazo[1,2-a]pyrimidin-2-yl]-N,N-dimethylaniline], the “% displacement of [3H]T808” value was found to be 15%.

In the case of `CN(C)c1ccc(-c2cn3ccc(N(C)CCF)nc3n2)cc1` [Example 92, 2-[4-(Dimethylamino)phenyl]-N-(2-fluoroethyl)-N-methylimidazo[1,2-a]pyrimidin-7-amine], the “% displacement of [3H]T808” value was 27%.

In the case of `COc1ccc(-c2cn3ccc(N(C)C4CC4)nc3n2)cc1` [Example 93, N-Cyclopropyl-2-(4-methoxyphenyl)-N-methylimidazo[1,2-a]pyrimidin-7-amine], the “% displacement of [3H]T808” value came to 42%.

In the case of `Cc1ccc(-c2cn3ccc(N4CCC4)nc3n2)cc1` [Example 94, 7-(Azetidin-1-yl)-2-(4-methylphenyl)imidazo[1,2-a]pyrimidine], the “% displacement of [3H]T808” value was determined as 15%.

Take `Cc1cccc(-c2cn3ccc(N4CCC4)nc3n2)c1` [Example 95, 7-(Azetidin-1-yl)-2-(3-methylphenyl)imidazo[1,2-a]pyrimidine]: the “% displacement of [3H]T808” value stood at 38%.

Regarding `CN(C)c1ccc(-c2cn3ccc(NCCF)nc3n2)cc1` [Example 96, 2-[4-(Dimethylamino)phenyl]-N-(2-fluoroethyl)imidazo[1,2-a]pyrimidin-7-amine], the “% displacement of [3H]T808” value is given as 34%.

`FCOc1ccc(-c2cn3ccc(N4CCC4)nc3n2)cc1` [Example 97, 7-(Azetidin-1-yl)-2-[4-(fluoromethoxy)phenyl]imidazo[1,2-a]pyrimidine]: the “% displacement of [3H]T808” value is given as 30%.

Take `CNc1ccn2cc(-c3ccc(O)c(OC)c3)nc2n1` [Example 98, 2-Methoxy-4-[7-(methylamino)imidazo[1,2-a]pyrimidin-2-yl]phenol]: the “% displacement of [3H]T808” value was determined as 18%.

Regarding `CNc1ccn2cc(-c3cccc(Br)c3)nc2n1` [Example 99, 2-(3-Bromophenyl)-N-methylimidazo[1,2-a]pyrimidin-7-amine], the “% displacement of [3H]T808” value worked out at 27%.

In the case of `FC1CCN(c2ccn3cc(-c4cnccn4)nc3n2)CC1` [Example 106, 7-(4-Fluoropiperidin-1-yl)-2-(pyrazin-2-yl)imidazo[1,2-a]pyrimidine], the “% displacement of [3H]T808” value is on record as 20%.

For `CNc1ccn2cc(-c3ccc(CO)cc3)nc2n1` [Example 107, [4-[7-(Methylamino)imidazo[1,2-a]pyrimidin-2-yl]phenyl]methanol acetic acid adduct], the “% displacement of [3H]T808” value was found to be 23%.

With `CNc1ccn2cc(-c3ccc(OC)c(F)c3)nc2n1` [Example 108, 2-(3-Fluoro-4-methoxyphenyl)-N-methylimidazo[1,2-a]pyrimidin-7-amine], the “% displacement of [3H]T808” value came out at 36%.

In the case of `CNc1ccn2cc(-c3ccc(NC(C)=O)cc3)nc2n1` [Example 109, N-(4-(7-(Methylamino)imidazo[1,2-a]pyrimidin-2-yl)phenyl)acetamide], the “% displacement of [3H]T808” value turned out to be 30%.
